From publication PMC5218480 (PLoS ONE, 2017)

Tested on: MV-4-11 cells
Test: Gene expression microarray analysis (Affymetrix PrimeView) and GSEA
Type: cell-based, human
Set-up: RFU PODN (11730768_x_at) / Fold change /veh PODN (11730768_x_at) / RFU LINC00158 (11744669_a_at) / Fold change /veh LINC00158 (11744669_a_at) / RFU DUSP10 (11751237_a_at) / Fold change /veh DUSP10 (11751237_a_at) / RFU ID3 (11757404_x_at) / Fold change /veh ID3 (11757404_x_at) / RFU PLEKHG5 (11737974_s_at) / Fold change /veh PLEKHG5 (11737974_s_at) / RFU LRRC4B (11730491_at) / Fold change /veh LRRC4B (11730491_at) / RFU GIMAP4 (11747438_a_at) / Fold change /veh GIMAP4 (11747438_a_at) / RFU KRT8 (11758183_x_at) / Fold change /veh KRT8 (11758183_x_at) / RFU CNN1 (11734310_a_at) / Fold change /veh CNN1 (11734310_a_at) / RFU VPS37D (11726825_at) / Fold change /veh VPS37D (11726825_at) / RFU C10orf10 (11716522_x_at) / Fold change /veh C10orf10 (11716522_x_at) / RFU KIR2DL2 /// KIR2DL4 /// KIR2DL5A /// KIR2DL5B /// KIR2DS1 /// KIR2DS2 /// KIR2DS3 /// KIR2DS4 /// KIR3DL3 /// KIR3DL3 /// KIR3DS1 (11738374_at) / Fold change /veh KIR2DL2 /// KIR2DL4 /// KIR2DL5A /// KIR2DL5B /// KIR2DS1 /// KIR2DS2 /// KIR2DS3 /// KIR2DS4 /// KIR3DL3 /// KIR3DL3 /// KIR3DS1 (11738374_at) / RFU C1QL1 (11718748_at) / Fold change /veh C1QL1 (11718748_at) / RFU TMPRSS4 (11747572_a_at) / Fold change /veh TMPRSS4 (11747572_a_at) / RFU HAMP (11756126_x_at) / Fold change /veh HAMP (11756126_x_at) / RFU RNFT2 (11725882_a_at) / Fold change /veh RNFT2 (11725882_a_at) / RFU NR4A2 (11747474_a_at) / Fold change /veh NR4A2 (11747474_a_at) / RFU ABCC12 (11746883_a_at) / Fold change /veh ABCC12 (11746883_a_at) / RFU TMEM136 (11760407_x_at) / Fold change /veh TMEM136 (11760407_x_at) / RFU CLDN22 /// WWC2 (11732394_at) / Fold change /veh CLDN22 /// WWC2 (11732394_at) / RFU HLA-DPB1 (11760878_x_at) / Fold change /veh HLA-DPB1 (11760878_x_at) / RFU SPINT1 (11716480_a_at) / Fold change /veh SPINT1 (11716480_a_at) / RFU GAP43 (11754022_s_at) / Fold change /veh GAP43 (11754022_s_at) / RFU A4GNT (11735810_at) / Fold change /veh A4GNT (11735810_at) / RFU PRB3 (11715151_x_at) / Fold change /veh PRB3 (11715151_x_at) / RFU TUBB4B (11761932_at) / Fold change /veh TUBB4B (11761932_at) / RFU CAPN14 (11732068_a_at) / Fold change /veh CAPN14 (11732068_a_at) / RFU TMCC2 (11721928_a_at) / Fold change /veh TMCC2 (11721928_a_at) / RFU IRGQ (11745062_a_at) / Fold change /veh IRGQ (11745062_a_at) / RFU FAM174B (11720279_a_at) / Fold change /veh FAM174B (11720279_a_at) / RFU TMPRSS4 (11748680_a_at) / Fold change /veh TMPRSS4 (11748680_a_at) / RFU FAM212B (11763350_a_at) / Fold change /veh FAM212B (11763350_a_at) / RFU PLEKHG5 (11743358_a_at) / Fold change /veh PLEKHG5 (11743358_a_at) / RFU ZSCAN30 (11745921_a_at) / Fold change /veh ZSCAN30 (11745921_a_at) / RFU CMKLR1 (11741424_a_at) / Fold change /veh CMKLR1 (11741424_a_at) / RFU LOC101060620 /// MAPK8IP1 (11723275_at) / Fold change /veh LOC101060620 /// MAPK8IP1 (11723275_at) / RFU SPTSSB (11747773_x_at) / Fold change /veh SPTSSB (11747773_x_at) / RFU PRSS12 (11739890_at) / Fold change /veh PRSS12 (11739890_at) / RFU BIN1 (11741810_x_at) / Fold change /veh BIN1 (11741810_x_at) / RFU WNT11 (11732464_a_at) / Fold change /veh WNT11 (11732464_a_at) / RFU C10orf10 (11716521_a_at) / Fold change /veh C10orf10 (11716521_a_at) / RFU C5orf56 (11738089_at) / Fold change /veh C5orf56 (11738089_at) / RFU CYB561 (11721691_x_at) / Fold change /veh CYB561 (11721691_x_at) / RFU ANKRD19P (11752326_a_at) / Fold change /veh ANKRD19P (11752326_a_at) / RFU OR2T12 /// OR2T33 /// OR2T8 (11738714_s_at) / Fold change /veh OR2T12 /// OR2T33 /// OR2T8 (11738714_s_at) / RFU VCAN (11748164_a_at) / Fold change /veh VCAN (11748164_a_at) / RFU JSRP1 (11732532_at) / Fold change /veh JSRP1 (11732532_at) / RFU KRTAP10-11 (11738290_x_at) / Fold change /veh KRTAP10-11 (11738290_x_at) / RFU MYO3A (11730013_a_at) / Fold change /veh MYO3A (11730013_a_at) / RFU EBF3 (11725865_a_at) / Fold change /veh EBF3 (11725865_a_at) / RFU CAMK2N1 (11719241_x_at) / Fold change /veh CAMK2N1 (11719241_x_at) / RFU C5orf56 (11738088_a_at) / Fold change /veh C5orf56 (11738088_a_at) / RFU OLFML3 (11715873_a_at) / Fold change /veh OLFML3 (11715873_a_at) / RFU LOC100653217 /// NTM (11731650_a_at) / Fold change /veh LOC100653217 /// NTM (11731650_a_at) / RFU MAPK11 (11762145_a_at) / Fold change /veh MAPK11 (11762145_a_at) / RFU FIZ1 (11724087_x_at) / Fold change /veh FIZ1 (11724087_x_at) / RFU OASL (11726364_x_at) / Fold change /veh OASL (11726364_x_at) / RFU SOX15 (11748057_x_at) / Fold change /veh SOX15 (11748057_x_at) / RFU CD79A (11719716_a_at) / Fold change /veh CD79A (11719716_a_at) / RFU HIST1H1D (11736915_at) / Fold change /veh HIST1H1D (11736915_at) / RFU CASKIN2 (11723855_a_at) / Fold change /veh CASKIN2 (11723855_a_at) / RFU LOC730098 (11760151_x_at) / Fold change /veh LOC730098 (11760151_x_at) / RFU OR4N2 (11742367_at) / Fold change /veh OR4N2 (11742367_at) / RFU PRRT2 (11749266_a_at) / Fold change /veh PRRT2 (11749266_a_at) / RFU SNX32 (11753110_a_at) / Fold change /veh SNX32 (11753110_a_at) / RFU CDHR5 (11726645_a_at) / Fold change /veh CDHR5 (11726645_a_at) / RFU RCAN1 (11760418_a_at) / Fold change /veh RCAN1 (11760418_a_at) / RFU FAM167A (11723789_a_at) / Fold change /veh FAM167A (11723789_a_at) / RFU FAM26E (11764081_at) / Fold change /veh FAM26E (11764081_at) / RFU ISYNA1 (11749810_s_at) / Fold change /veh ISYNA1 (11749810_s_at) / RFU ACY1 (11761880_at) / Fold change /veh ACY1 (11761880_at) / RFU 11764098_at / Fold change /veh 11764098_at / RFU SAMD14 (11745864_x_at) / Fold change /veh SAMD14 (11745864_x_at) / RFU NPB (11741838_a_at) / Fold change /veh NPB (11741838_a_at) / RFU TMPRSS6 (11731388_a_at) / Fold change /veh TMPRSS6 (11731388_a_at) / RFU KRTAP10-2 (11738614_at) / Fold change /veh KRTAP10-2 (11738614_at) / RFU ARHGAP8 /// PRR5-ARHGAP8 (11727945_x_at) / Fold change /veh ARHGAP8 /// PRR5-ARHGAP8 (11727945_x_at) / RFU KRTAP5-7 /// NADSYN1 (11734609_at) / Fold change /veh KRTAP5-7 /// NADSYN1 (11734609_at) / RFU RASL12 (11751679_a_at) / Fold change /veh RASL12 (11751679_a_at) / RFU CDKN2B (11736163_a_at) / Fold change /veh CDKN2B (11736163_a_at) / RFU PRF1 (11729649_at) / Fold change /veh PRF1 (11729649_at) / RFU, ZNF638 /// ZNF638-IT1 / Fold change vs veh, ZNF638 /// ZNF638-IT1 / RFU, PANK3 / Fold change vs veh, PANK3 / RFU, SH3YL1 / Fold change vs veh, SH3YL1 / RFU, ZEB2 / Fold change vs veh, ZEB2 / RFU, NRIP1 / Fold change vs veh, NRIP1 / RFU, PTTG1IP / Fold change vs veh, PTTG1IP / RFU, CAPN2 / Fold change vs veh, CAPN2 / RFU, MED14 / Fold change vs veh, MED14 / RFU, SNORA58 / Fold change vs veh, SNORA58 / RFU, C1orf63 / Fold change vs veh, C1orf63 / RFU, LRRFIP1 / Fold change vs veh, LRRFIP1 / RFU, NDUFAF7 / Fold change vs veh, NDUFAF7 / RFU, SLC12A2 / Fold change vs veh, SLC12A2 / RFU, IBTK / Fold change vs veh, IBTK / RFU, ESF1 / Fold change vs veh, ESF1 / Fold change vs veh, TMEM50B / RFU, TAOK1 / Fold change vs veh, TAOK1 / RFU, ACBD3 / Fold change vs veh, ACBD3 / RFU, TMA16 / Fold change vs veh, TMA16 / RFU, RWDD3 / Fold change vs veh, RWDD3 / RFU, BCAT1 / Fold change vs veh, BCAT1 / RFU, EDEM3 / Fold change vs veh, EDEM3 / RFU, TMEM33 / Fold change vs veh, TMEM33 / RFU, WDR75 / Fold change vs veh, WDR75 / RFU, AHCTF1 / Fold change vs veh, AHCTF1 / RFU, TFRC / Fold change vs veh, TFRC / RFU, ZDHHC17 / Fold change vs veh, ZDHHC17 / RFU, NOM1 / Fold change vs veh, NOM1 / RFU, ARL8B / Fold change vs veh, ARL8B / RFU, ZBTB11 / Fold change vs veh, ZBTB11 / RFU, TAMM41 / Fold change vs veh, TAMM41 / RFU, KIAA1704 /// LOC100996395 / Fold change vs veh, KIAA1704 /// LOC100996395 / RFU, ING1 / Fold change vs veh, ING1 / RFU, TRMT61B / Fold change vs veh, TRMT61B / RFU, FUBP3 / Fold change vs veh, FUBP3 / RFU, TP53 / Fold change vs veh, TP53 / RFU, TNKS2 / Fold change vs veh, TNKS2 / RFU, ZFP14 / Fold change vs veh, ZFP14 / RFU, ACTR2 / Fold change vs veh, ACTR2 / RFU, PPP3R1 / Fold change vs veh, PPP3R1 / RFU, PIK3R1 / Fold change vs veh, PIK3R1 / RFU, HNRNPA1 / Fold change vs veh, HNRNPA1 / RFU, RNF170 / Fold change vs veh, RNF170 / RFU, ZNF28 / Fold change vs veh, ZNF28 / RFU, RNGTT / Fold change vs veh, RNGTT / RFU, OGT / Fold change vs veh, OGT / RFU, BRD1 / Fold change vs veh, BRD1 / RFU, MARS / Fold change vs veh, MARS / RFU, ZNF655 / Fold change vs veh, ZNF655 / RFU, FAHD1 / Fold change vs veh, FAHD1 / RFU, BDP1 / Fold change vs veh, BDP1 / RFU, LRRCC1 / Fold change vs veh, LRRCC1 / RFU, ARID1A / Fold change vs veh, ARID1A / RFU, ZNF146 / Fold change vs veh, ZNF146 / RFU, ZNF330 / Fold change vs veh, ZNF330 / RFU, GPN3 / Fold change vs veh, GPN3 / RFU, C9orf123 / Fold change vs veh, C9orf123 / RFU, N4BP2L2 / Fold change vs veh, N4BP2L2 / RFU, ARFIP1 / Fold change vs veh, ARFIP1 / RFU, FAM179B / Fold change vs veh, FAM179B / RFU, BCL10 / Fold change vs veh, BCL10 / RFU, UHRF1BP1L / Fold change vs veh, UHRF1BP1L / RFU, BET1 / Fold change vs veh, BET1 / RFU, CNOT2 / Fold change vs veh, CNOT2 / RFU, ZNF268 / Fold change vs veh, ZNF268 / Fold change vs veh, ZNF507 / RFU, DGCR2 / Fold change vs veh, DGCR2 / RFU, WDSUB1 / Fold change vs veh, WDSUB1 / Fold change vs veh, HSP90B1 /// MIR3652 / RFU, ADSS / Fold change vs veh, ADSS / RFU, GK / Fold change vs veh, GK / RFU, ZNF148 / Fold change vs veh, ZNF148 / RFU, TAF9 / Fold change vs veh, TAF9 / RFU, SLC1A5 / Fold change vs veh, SLC1A5 / RFU, SLMO2 / Fold change vs veh, SLMO2 / RFU, ABCC4 / Fold change vs veh, ABCC4 / RFU, LOC101060439 /// RAP1B / Fold change vs veh, LOC101060439 /// RAP1B / RFU, RFX7 / Fold change vs veh, RFX7 / RFU, GTPBP10 / Fold change vs veh, GTPBP10 / RFU, CNEP1R1 / Fold change vs veh, CNEP1R1 / RFU, BIVM-ERCC5 /// ERCC5 / Fold change vs veh, BIVM-ERCC5 /// ERCC5 / RFU, ILF3 / Fold change vs veh, ILF3 / RFU 11762660_at / Fold change /veh 11762660_at / RFU VCAN (11757783_s_at) / Fold change /veh VCAN (11757783_s_at) / RFU DDX43 (11728927_at) / Fold change /veh DDX43 (11728927_at) / RFU KRT8 (11758188_x_at) / Fold change /veh KRT8 (11758188_x_at) / RFU NKD1 (11759106_at) / Fold change /veh NKD1 (11759106_at) / RFU SRD5A1 (11742802_a_at) / Fold change /veh SRD5A1 (11742802_a_at) / RFU TPSAB1 /// TPSB2 (11721975_s_at) / Fold change /veh TPSAB1 /// TPSB2 (11721975_s_at) / RFU GSTM3 (11746129_a_at) / Fold change /veh GSTM3 (11746129_a_at) / RFU IL23R (11737362_x_at) / Fold change /veh IL23R (11737362_x_at) / RFU TMEM51 (11727254_a_at) / Fold change /veh TMEM51 (11727254_a_at) / RFU PIWIL2 (11732686_x_at) / Fold change /veh PIWIL2 (11732686_x_at) / RFU ORM1 (11744905_x_at) / Fold change /veh ORM1 (11744905_x_at) / RFU CCDC152 (11743942_at) / Fold change /veh CCDC152 (11743942_at) / RFU ECM1 (11717891_a_at) / Fold change /veh ECM1 (11717891_a_at) / RFU IL23R (11748794_a_at) / Fold change /veh IL23R (11748794_a_at) / RFU TNFAIP8L3 (11732012_x_at) / Fold change /veh TNFAIP8L3 (11732012_x_at) / RFU MBOAT4 (11741988_at) / Fold change /veh MBOAT4 (11741988_at) / RFU 11764193_at / Fold change /veh 11764193_at / RFU TMEM53 (11763286_at) / Fold change /veh TMEM53 (11763286_at) / RFU MAGEB2 (11727129_at) / Fold change /veh MAGEB2 (11727129_at) / RFU TMEM200A (11744735_a_at) / Fold change /veh TMEM200A (11744735_a_at) / RFU CCDC152 (11751479_a_at) / Fold change /veh CCDC152 (11751479_a_at) / RFU FAM211A (11726209_a_at) / Fold change /veh FAM211A (11726209_a_at) / RFU RGS16 (11746705_a_at) / Fold change /veh RGS16 (11746705_a_at) / RFU VCAN (11755009_s_at) / Fold change /veh VCAN (11755009_s_at) / RFU RHOB (11743442_s_at) / Fold change /veh RHOB (11743442_s_at) / RFU RGS16 (11720943_a_at) / Fold change /veh RGS16 (11720943_a_at) / RFU RGS16 (11720944_at) / Fold change /veh RGS16 (11720944_at) / RFU, VPS4B / Fold change vs veh, VPS4B / RFU, CREB1 / Fold change vs veh, CREB1 / RFU, DNAJC13 / Fold change vs veh, DNAJC13 / RFU, GNAQ / Fold change vs veh, GNAQ / RFU, CDK5R1 / Fold change vs veh, CDK5R1 / RFU, ZRANB3 / Fold change vs veh, ZRANB3 / RFU, CUL4A / Fold change vs veh, CUL4A / RFU, CCNY / Fold change vs veh, CCNY / RFU, UFL1 / Fold change vs veh, UFL1 / RFU, COG3 / Fold change vs veh, COG3 / RFU, DIAPH2 / Fold change vs veh, DIAPH2 / RFU, SKA2 / Fold change vs veh, SKA2 / RFU, AFF3 / Fold change vs veh, AFF3 / RFU, LMF1 / Fold change vs veh, LMF1 / RFU, IPO11 / Fold change vs veh, IPO11 / RFU, DFFB / Fold change vs veh, DFFB / RFU, FOXP1 / Fold change vs veh, FOXP1 / RFU, CARD8 / Fold change vs veh, CARD8 / RFU, STRN3 / Fold change vs veh, STRN3 / RFU, ADK / Fold change vs veh, ADK / RFU, RASSF2 / Fold change vs veh, RASSF2 / RFU, WIPF1 / Fold change vs veh, WIPF1 / RFU, LARP1B / Fold change vs veh, LARP1B / RFU, RASA1 / Fold change vs veh, RASA1 / RFU, RB1 / Fold change vs veh, RB1 / RFU, PPFIA1 / Fold change vs veh, PPFIA1 / RFU, MAT2A / Fold change vs veh, MAT2A / RFU, CCT5 / Fold change vs veh, CCT5 / RFU, WDR92 / Fold change vs veh, WDR92 / RFU, CUX1 / Fold change vs veh, CUX1 / RFU, TTC7A / Fold change vs veh, TTC7A / RFU, TMEM135 / Fold change vs veh, TMEM135 / RFU, DEPTOR / Fold change vs veh, DEPTOR / RFU, CPM / Fold change vs veh, CPM / RFU, DNAJB6 / Fold change vs veh, DNAJB6 / RFU, CACNA2D3 / Fold change vs veh, CACNA2D3 / RFU, DTX4 / Fold change vs veh, DTX4 / RFU, TFCP2 / Fold change vs veh, TFCP2 / RFU, GMCL1 /// GMCL1P1 / Fold change vs veh, GMCL1 /// GMCL1P1 / RFU, AEBP2 / Fold change vs veh, AEBP2 / RFU, SNHG1 /// SNORD22 /// SNORD25 /// SNORD26 /// SNORD27 /// SNORD28 /// SNORD29 /// SNORD31 / Fold change vs veh, SNHG1 /// SNORD22 /// SNORD25 /// SNORD26 /// SNORD27 /// SNORD28 /// SNORD29 /// SNORD31 / Fold change (Aza/veh), C12orf56 (ProbeSet 11735607_a_at) / Fold change (ACY-1035/veh), C12orf56 (ProbeSet 11735607_a_at) / Fold change (Aza/veh), FGFR1OP (ProbeSet 11751329_s_at) / Fold change (ACY-1035/veh), FGFR1OP (ProbeSet 11751329_s_at) / Fold change (Aza/veh), VPS36 (ProbeSet 11739960_a_at) / Fold change (ACY-1035/veh), VPS36 (ProbeSet 11739960_a_at) / RFU SYPL1 (11715823_x_at) / Fold change /veh SYPL1 (11715823_x_at) / RFU IGFBP7 (11715501_s_at) / Fold change /veh IGFBP7 (11715501_s_at) / RFU REEP3 (11722064_at) / Fold change /veh REEP3 (11722064_at) / RFU IGLL1 (11728026_x_at) / Fold change /veh IGLL1 (11728026_x_at): dose or concentration left out as unconfirmed
Details: MV-4-11 cells, 48 hours

For `Nc1ccc(-c2cccs2)cc1NC(=O)c1ccc2c(c1)cc(C1CC1)n2CCN1CCOCC1` [ACY-1035], the “RFU HLA-DPB1 (11760878_x_at)” value was 21.61 RFU.
